Among the data in patent US20190359645A1, “2'3'-CYCLIC DINUCLEOTIDES COMPRISING CARBOCYCLIC NUCLEOTIDE” (Institute of Organic Chemistry and Biochemistry ASCR, V.V.I., priority 2018, published 2019) are EC50 values, retold here.

This experiment deals with WT STING (Homo sapiens, UniProt Q86WV6, H232R). The experiment can be described thus: Digitonin assay using 293T wtSTING-FL reporter cells. In kind it is cell-based. The arrangement: host or cells: 293T (ATCC CRL-3216), stably transfected; also carries the 4xISRE firefly luciferase reporter. As to conditions: 293T wtSTING-FL cells, digitonin buffer 30 min, then 5 h, ISRE firefly luciferase reporter; read-out: Digitonin assay EC50 WT STING. An excerpt: Two complementary oligonucleotides of the sequence […] […] […] […] (SEQ ID NO: 1) and […] […] (SEQ ID NO:2) containing four interferon-sensitive response elements (ISRE) were synthesized by Sigma Aldrich (Czech Republic, Prague). The oligonucleotides were mixed in equal molar amounts, hybridized, and cleaved by restriction endonucleases HindIII (cat. #. R^0104S, NEB, Ipswich, USA) and BglII (cat. # R^0144S, NEB, Ipswich, USA). Ultimately, they were ligated into plasmid pGL4.27 (cat. # E6651, Promega, Madison, USA) linearized with the same enzymes. As a result, the sequence with four ISRE sites was placed upstream of the minimum promoter of firefly luciferase reporter gene.
293T cells (cat. # CRL-3216, ATCC, Manassas, USA) were seeded a day before transfection at density 125,000 cells per cm^2 onto poly-D-lysine (cat. # P6407, Sigma Aldrich, Czech Republic) coated six well plates in antibiotic free DMEM with high glucose (cat. # D5796, Sigma Aldrich, Czech Republic) supplemented with 10% heat inactivated FBS (cat. # S1520, Biowest, Riverside, USA). On the day of transfection, 2.5 μg of the plasmid pUNO1-hSTING-WT (cat. # punol-hstingwt, InvivoGen, San Diego, USA,) encoding human wild type STING (WT STING) was diluted in 125 μL OptiMEM medium (cat. #31985062, ThermoFisher, Waltham, USA) and mixed with 125 μL of the same medium containing 12.5 μL of Lipofectamine 2000 (cat. #11668019, ThermoFisher, Waltham, USA). After 5 minutes incubation at room temperature (RT), 250 μL of the mixture was added dropwise to the cells in one well. Cells were incubated 36 hours at 37° C. with 5% CO2, and then detached with 0.05% Trypsin and 0.22 g/L EDTA (both cat. # L0941, Biowest, Riverside, USA).
Transfected cells were seeded onto poly-D-lysine coated six well plates at density 50,000 cells per 1 cm^2 in DMEM medium with high glucose containing 10% heat inactivated FBS, […] blasticidin (cat. # ant-bl-05, InvivoGen, San Diego, USA), 0.06 mg/ml Penicillin G and 0.1 mg/ml Streptomycin Sulfate (both cat. #. L0018, Biowest, Riverside, USA). The medium was replenished every 3-4 days until visible colonies of cells resistant to blasticidin were formed.
Blasticidin resistant cells stably expressing WT STING were further transfected with […] plasmid following the same procedure as described above. The transfected cells were selected for the resistance to 300 μg/mL hygromycin (cat. #. 10687010, ThermoFisher, Waltham, USA) in DMEM with high glucose containing 10% heat inactivated FBS, […] blasticidin, 0.06 mg/ml Penicillin G and 0.1 mg/ml Streptomycin Sulfate. Homogeneous culture of stably double transfected cells was prepared by limiting dilution of cells in 96 well plates and wells with cells were selected that originated from a single cell. These cells were expanded, and expression of WT STING was confirmed by western blot using monoclonal mouse anti STING antibodies (cat. #. MAB7169, 1:1000 dilution; […] cat. #. HAF007, 1:2000 dilution, both from R&D Systems, Minneapolis, USA), and by induction of firefly luciferase expression in the presence of 50 μM STING agonist 2′3′ cGAMP (cat. # tlrl-nacga23, InvivoGen, San Diego, USA). Genomic DNA from the transfected cells was amplified with primers pUNO1_Seq_F ([…]) (SEQ ID NO:3) and pUNO1_Seq_R ([…]) (SEQ ID NO:4) that were complementary to pUNO1 plasmid and the presence of WT STING gene in the transfected cells was confirmed by DNA sequencing.
293T wtSTING-FL cells were seeded at density of 250,000 cells per cm^2 onto 96 well poly-D-lysine coated plates in 100 μl DMEM with high glucose supplemented with 10% heat inactivated FBS. […]
A general note: A reporter such as luciferase makes a cellular process visible.

WT STING, sequence (Q86WV6 whole entry H232R): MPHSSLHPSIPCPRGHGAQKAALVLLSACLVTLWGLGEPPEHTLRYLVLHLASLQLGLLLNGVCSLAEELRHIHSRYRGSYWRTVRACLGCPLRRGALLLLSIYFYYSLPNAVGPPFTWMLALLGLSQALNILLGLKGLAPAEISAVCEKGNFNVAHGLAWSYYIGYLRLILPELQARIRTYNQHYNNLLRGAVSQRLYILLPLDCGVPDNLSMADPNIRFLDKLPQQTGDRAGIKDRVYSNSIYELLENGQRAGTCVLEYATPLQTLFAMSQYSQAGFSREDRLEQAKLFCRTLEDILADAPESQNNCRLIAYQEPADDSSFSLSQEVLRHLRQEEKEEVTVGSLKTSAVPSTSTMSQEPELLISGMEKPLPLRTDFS

On to `Nc1nc2c(ncn2[C@@H]2C[C@@H]3COP(=O)(S)OC4C(O)[C@H](n5cnc6c(N)ncnc65)O[C@@H]4COP(=O)(O)OC2C3O)c(=O)[nH]1` (stereo partly drawn) [Compound 118, (6R,8R,15R,17R)-17-(2-amino-6-oxo-6,9-dihydro-1H-purin-9-yl)-8-(6-amino-9H-purin-9-yl)-3,9,18-trihydroxy-12-sulfanyl-2,4,7,11,13-pentaoxa-3λ^5,12λ^5-diphosphatricyclo[13.2.1.0^6,10]octadecane-3,12-dione], for which the EC50 is 130 nM.

The term EC50 denotes the concentration giving half of the maximal effect.
